≈ marks a conversion by molar mass, not a printed value.
Experiments:
[1] = tested on: Mycobacterium tuberculosis; assay: Antitubercular activity against Mycobacterium tuberculosis H37Rv by resazurin dye based microtiter plate assay; format: functional
[2] = Cytotoxicity against human HeLa cells assessed as cytolytic effect incubated for 72 hrs by methylene blue staining based colorimetric analysis; format: toxicity, cell-based
[3] = Selectivity index, ratio of CC50 for cytotoxicity against human HeLa cells to MIC for antitubercular activity against Mycobacterium tuberculosis H37Rv; format: toxicity, cell-based; conditions: read-out: Selectivity Index
[4] = Cmax in mouse RAW264.7 cells at 77 uM incubated for 8 hrs by UHPLC-HRMS analysis; format: ADME, cell-based
[5] = Tmax in mouse RAW264.7 cells at 77 uM incubated for 8 hrs by UHPLC-HRMS analysis; format: ADME, cell-based
[6] = Half life in mouse RAW264.7 cells at 77 uM incubated for 8 hrs by UHPLC-HRMS analysis; format: ADME, cell-based
[7] = Drug metabolism in cattle assessed as hydride meisenheimer complex formation by UHPLC-HRMS analysis; format: ADME, Bos taurus
[8] = Drug metabolism in rat assessed as hydride meisenheimer complex formation by UHPLC-HRMS analysis; format: ADME
[9] = Drug metabolism in sheep assessed as hydride meisenheimer complex formation by UHPLC-HRMS analysis; format: ADME, Ovis aries
[10] = Drug metabolism in goat assessed as hydride meisenheimer complex formation by UHPLC-HRMS analysis; format: ADME, Capra hircus
[11] = Drug metabolism in CD1 mouse heart assessed as hydride meisenheimer complex formation by UHPLC-HRMS analysis; format: ADME, tissue-based
[12] = Drug metabolism in CD1 mouse brain assessed as hydride meisenheimer complex formation by UHPLC-HRMS analysis; format: ADME, tissue-based
[13] = Drug metabolism in CD1 mouse liver assessed as hydride meisenheimer complex formation by UHPLC-HRMS analysis; format: ADME, tissue-based
[14] = Drug metabolism in CD1 mouse lung assessed as hydride meisenheimer complex formation by UHPLC-HRMS analysis; format: ADME, tissue-based
[15] = Drug metabolism in CD1 mouse spleen assessed as hydride meisenheimer complex formation by UHPLC-HRMS analysis; format: ADME, tissue-based
[16] = Drug metabolism in CD1 mouse muscle assessed as hydride meisenheimer complex formation by UHPLC-HRMS analysis; format: ADME, tissue-based, Muscle tissue
[17] = Drug metabolism in CD1 mouse kidney assessed as hydride meisenheimer complex formation by UHPLC-HRMS analysis; format: ADME, tissue-based
[18] = Drug metabolism in CD1 mouse blood assessed as hydride meisenheimer complex formation by UHPLC-HRMS analysis; format: ADME, tissue-based
[19] = Metabolic stability in human liver microsomes assessed as half life at 20 uM measured upto 90 mins in presence of NADP regenerating system by high-resolution mass spectrometry; format: ADME, Microsome
[20] = Metabolic stability in human liver microsomes assessed as intrinsic clearance at 20 uM measured upto 90 mins in presence of NADP regenerating system by high-resolution mass spectrometry; format: ADME, Microsome; conditions: read-out: CLH
[21] = Metabolic stability in human liver assessed as intrinsic clearance at 20 uM measured upto 90 mins in presence of NADP regenerating system by high-resolution mass spectrometry; format: ADME, tissue-based; conditions: read-out: CLH
[22] = Metabolic stability in human liver microsomes assessed as hepatic extraction ratio at 20 uM measured upto 90 mins in presence of NADP regenerating system by high-resolution mass spectrometry; format: ADME, Microsome; conditions: read-out: ERH
[23] = Cmax in BALB/cAnNCrl mouse at 250 mg/kg, po measured upto 24 hrs by UHPLC-HRMS analysis; format: ADME, organism-based; conditions: in vivo
[24] = Tmax in BALB/cAnNCrl mouse at 250 mg/kg, po measured upto 24 hrs by UHPLC-HRMS analysis; format: ADME, organism-based; conditions: in vivo
[25] = AUC (0 to infinity) in BALB/cAnNCrl mouse at 250 mg/kg, po measured upto 24 hrs by UHPLC-HRMS analysis; format: ADME, organism-based; conditions: in vivo
[26] = Apparent volume of distribution during terminal phase in BALB/cAnNCrl mouse at 250 mg/kg, po measured upto 24 hrs by UHPLC-HRMS analysis; format: ADME, organism-based; conditions: in vivo, read-out: Vz/F
[27] = Half life in BALB/cAnNCrl mouse at 250 mg/kg, po measured upto 24 hrs by UHPLC-HRMS analysis; format: ADME, organism-based; conditions: in vivo
[28] = Apparent oral clearance in BALB/cAnNCrl mouse at 250 mg/kg measured upto 24 hrs by UHPLC-HRMS analysis; format: ADME, organism-based; conditions: in vivo
[29] = tested on: Mycobacterium tuberculosis; assay: Antitubercular activity against Mycobacterium tuberculosis H37Rv infected in BALB/c mouse assessed as reduction of colony forming unit in lung administered once daily for 6 weeks by agar dilution method; format: functional, organism-based; conditions: dose 25-250 mg/kg/day, route po
[30] = tested on: Mycobacterium tuberculosis; assay: Antitubercular activity against Mycobacterium tuberculosis H37Rv infected in BALB/c mouse assessed as reduction of colony forming unit in spleen administered once daily for 6 weeks by agar dilution method; format: functional, organism-based; conditions: dose 25-250 mg/kg/day, route po
[31] = Toxicity in BALB/c mouse infected with Mycobacterium tuberculosis H37Rv assessed as drug tolerance at 25 to 250 mg/kg/day, po qd administered for 6 weeks; format: organism-based; conditions: in vivo, 1008 h, dose 25-250 mg/kg/day
[32] = Drug metabolism in BALB/c cAnNCrl mouse assessed as HMC metabolite formation at 250 mg/kg, po measured upto 24 hrs by UHPLC-HRMS analysis; format: ADME, organism-based; conditions: in vivo
[33] = Stability in mouse RAW264.7 cells assessed as parent compound remaining at 77 uM after 8 hrs by UHPLC-HRMS analysis; format: ADME, cell-based; conditions: read-out: Stability

Structure (SMILES): Cc1c(C(F)(F)F)c(C)c2c(=O)nc(N3CCC4(CC3)OC[C@H](C)O4)sc2c1[N+](=O)[O-]
- MIC [1]: 4.35 µM (≈ 2 µg/mL)
- CC50 at 72 h [2]: 93 µM
- selectivity ratio [3]: 21

Structure (SMILES): C[C@H]1COC2(CCN(c3nc(=O)c4cc(C(F)(F)F)cc([N+](=O)[O-])c4s3)CC2)O1 [BTZ-043]
- MIC [1]: 0.00348 µM (≈ 0.0015 µg/mL)
- CC50 at 72 h [2]: > 120 µM
- selectivity ratio [3]: 33300
- Cmax at 77 µM [4]: 3950 ng/mL
- Tmax at 77 µM [5]: 0 h
- half-life at 77 µM [6]: 2.3 h
- Drug metabolism [7]: Metabolite_Detected
- Drug metabolism [8]: Metabolite_Detected
- Drug metabolism [9]: Metabolite_Detected
- Drug metabolism [10]: Metabolite_Detected
- Drug metabolism [11]: Metabolite_Detected
- Drug metabolism [12]: Metabolite_Detected
- Drug metabolism [13]: Metabolite_Detected
- Drug metabolism [14]: Metabolite_Detected
- Drug metabolism [15]: Metabolite_Detected
- Drug metabolism [16]: Metabolite_Detected
- Drug metabolism [17]: Metabolite_Detected
- Drug metabolism [18]: Metabolite_Detected

Structure (SMILES): Cc1c(C(F)(F)F)cc([N+](=O)[O-])c2sc(N3CCC4(CC3)OC[C@H](C)O4)nc(=O)c12
- MIC [1]: 0.053 µM (≈ 0.0236 µg/mL)
- CC50 at 72 h [2]: > 110 µM
- selectivity ratio [3]: 8330
- half-life at 20 µM [19]: 1.7 h
- microsomal CLint at 20 µM [20]: 13.7 µL/min/mg
- CLint scaled at 20 µM [21]: 15.9 mL/min/kg
- hepatic extraction ratio at 1.5 h, 20 µM [22]: 0.443
- Cmax at 77 µM [4]: 504 ng/mL
- Tmax at 77 µM [5]: 0.17 h
- half-life at 77 µM [6]: 20.2 h
- Cmax [23]: 2410 ng/mL
- Tmax [24]: 0.5 h
- AUC [25]: 15600 ng·h/mL
- Vd/F [26]: 108 L/kg
- half-life [27]: 4.6 h
- CL/F [28]: 267 mL/min/kg
- Activity [29]: Dose-Dependent Effect
- Activity [30]: Dose-Dependent Effect
- Activity [31]: Non-Toxic
- Drug metabolism [32]: Metabolite_Notdetected
- remaining at 8 h, 77 µM [33]: 76.6%

Structure (SMILES): O=c1nc(N2CCC(Oc3ccc(OC(F)(F)F)cc3)CC2)sc2c([N+](=O)[O-])cc(C(F)(F)F)cc12
- MIC [1]: 0.0056 µM (≈ 0.003 µg/mL)
- CC50 at 72 h [2]: > 93 µM
- selectivity ratio [3]: 16700

Structure (SMILES): Cc1c(C(F)(F)F)cc2c(=O)nc(N3CCN(S(=O)(=O)c4ccc(OC(F)(F)F)cc4)CC3)sc2c1[N+](=O)[O-]
- MIC [1]: > 6.68 µM
- CC50 at 72 h [2]: > 84 µM
- selectivity ratio [3]: 13

Structure (SMILES): C#Cc1c(C(F)(F)F)cc([N+](=O)[O-])c2sc(N3CCC4(CC3)OC[C@H](C)O4)nc(=O)c12
- MIC [1]: > 8.78 µM
- CC50 at 72 h [2]: 9 µM
- selectivity ratio [3]: 1

Structure (SMILES): Cc1c(C(F)(F)F)cc2c(=O)nc(N3CCC(Oc4ccc(OC(F)(F)F)cc4)CC3)sc2c1[N+](=O)[O-]
- MIC [1]: 3.64 µM (≈ 2 µg/mL)
- CC50 at 72 h [2]: > 91 µM
- selectivity ratio [3]: 25
- half-life at 20 µM [19]: 1.13 h
- microsomal CLint at 20 µM [20]: 20.6 µL/min/mg
- CLint scaled at 20 µM [21]: 23.8 mL/min/kg
- hepatic extraction ratio at 1.5 h, 20 µM [22]: 0.543

Structure (SMILES): Cc1c(C(F)(F)F)cc2c(=O)nc(N3CCC4(CC3)OC[C@H](C)O4)sc2c1[N+](=O)[O-]
- MIC [1]: 0.842 µM (≈ 0.375 µg/mL)
- CC50 at 72 h [2]: 87 µM
- selectivity ratio [3]: 104
- half-life at 20 µM [19]: 2.75 h
- microsomal CLint at 20 µM [20]: 8.5 µL/min/mg
- CLint scaled at 20 µM [21]: 9.8 mL/min/kg
- hepatic extraction ratio at 1.5 h, 20 µM [22]: 0.329

Structure (SMILES): Cc1c(C(F)(F)F)cc([N+](=O)[O-])c2sc(N3CCN(S(=O)(=O)c4ccc(OC(F)(F)F)cc4)CC3)nc(=O)c12
- MIC [1]: > 6.68 µM
- CC50 at 72 h [2]: > 84 µM
- selectivity ratio [3]: 13

Structure (SMILES): C[C@H]1COC2(CCN(c3nc(=O)c4cc(C(F)(F)F)cc(N)c4s3)CC2)O1
- Cmax at 77 µM [4]: 2000 ng/mL
- Tmax at 77 µM [5]: 8 h
- half-life at 77 µM [6]: 13 h

Structure (SMILES): Cc1c(C(F)(F)F)cc2c(=O)nc(N3CCN(CC4CCCCC4)CC3)sc2c1[N+](=O)[O-]
- MIC [1]: 0.797 µM (≈ 0.375 µg/mL)
- CC50 at 72 h [2]: 64 µM
- selectivity ratio [3]: 80

Structure (SMILES): Cc1c(C(F)(F)F)cc([N+](=O)[O-])c2sc(N3CCC(Oc4ccc(OC(F)(F)F)cc4)CC3)nc(=O)c12
- MIC [1]: 0.91 µM (≈ 0.5 µg/mL)
- CC50 at 72 h [2]: > 91 µM
- selectivity ratio [3]: 100
- half-life at 20 µM [19]: 0.572 h
- microsomal CLint at 20 µM [20]: 40.8 µL/min/mg
- CLint scaled at 20 µM [21]: 47.1 mL/min/kg
- hepatic extraction ratio at 1.5 h, 20 µM [22]: 0.702

Structure (SMILES): O=c1nc(N2CCN(S(=O)(=O)c3ccc(OC(F)(F)F)cc3)CC2)sc2c([N+](=O)[O-])cc(C(F)(F)F)cc12
- MIC [1]: 0.108 µM (≈ 0.0631 µg/mL)
- CC50 at 72 h [2]: 43 µM
- selectivity ratio [3]: 397

Structure (SMILES): Cc1c(C(F)(F)F)cc([N+](=O)[O-])c2sc(N3CCN(CC4CCCCC4)CC3)nc(=O)c12
- MIC [1]: 0.056 µM (≈ 0.0263 µg/mL)
- CC50 at 72 h [2]: 53 µM
- selectivity ratio [3]: 50000
- half-life at 20 µM [19]: 0.692 h
- microsomal CLint at 20 µM [20]: 33.7 µL/min/mg
- CLint scaled at 20 µM [21]: 39 mL/min/kg
- hepatic extraction ratio at 1.5 h, 20 µM [22]: 0.661

Structure (SMILES): O=c1nc(N2CCN(CC3CCCCC3)CC2)sc2c([N+](=O)[O-])cc(C(F)(F)F)cc12 [MACOZINONE]
- MIC [1]: 0.0011 µM (≈ 0.000502 µg/mL)
- CC50 at 72 h [2]: > 110 µM
- selectivity ratio [3]: 100000

Source: ChEMBL document CHEMBL5528018, “Whole cell hydride Meisenheimer complex biotransformation guided optimization of antimycobacterial benzothiazinones” (Eur J Med Chem, 2024)
